From article PMC8398255, “Synthesis of 3,5-Bis(trifluoromethyl)phenyl-Substituted Pyrazole Derivatives as Potent Growth Inhibitors of Drug-Resistant Bacteria” (Molecules, 2021)
Values after ≈ are worked out from the molar mass of the structure shown.

What was measured:
[1] = Cytotoxicity assay (resazurin); format: cell-based; conditions: human, HEK-293 cells, 24 h treatment, n = 3
Method: The human embryonic kidney cell line (HEK-293) was used to assess the cytotoxicity of the antibiotics as described by us previously. HEK-293 cells were cultured in Dulbecco’s modified eagle’s medium (DMEM) containing 10% Fetal Bovine Serum (FBS) and incubated at 37 °C in the presence of 5% carbon dioxide. HEK-293 cells were cultured in 96-well black plates with 6000 cells per well for the first 24 h followed by treatment with a range of concentrations of antibiotics dissolved in DMSO for the next 24 h. After the second period of incubation, resazurin (40 µL of 0.15 mg/mL) was added to each well and incubated for an additional 4 h. Reduction of resazurin was measured fluorometrically with excitation wavelength at 560 nm and emission at 590 nm using BioTek™ Cytation™5 plate reader. Percentage viability of HEK cells for each range of concentrations was calculated, taking the fluorescence value of the wells treated with DMSO as a reference, using Microsoft® Excel® for Office 365 MSO. IC50 values were computed using the calculated percentage viability values through data processing in Graphpad Prism 7 for Windows, Version 7.04.

[2] = test system: S. aureus and E. faecalis biofilms; experiment: Biofilm eradication, S. aureus and E. faecalis; format: cell-based
Method: (§1) Minimum biofilm eradication concentration (MBEC) was determined using a Calgary device using the protocol reported elsewhere with some modifications. The Calgary device is a 96-well plate with a lid containing pegs to establish biofilms. Bacteria from an overnight plate culture were suspended to a 0.5 McFarland turbidity, then diluted 1:100 in a CAMHB containing 1% glucose which was inoculated in the 96 wells (150 μL in each well) and incubated at 35 °C for 24 h to establish biofilm on the pegs. The lid was then removed, washed with PBS in a fresh 96 well plate, then transferred to another 96-well plate containing 2-fold serial dilutions of the test compounds dissolved in PBS (150 μL total volume in each well). This plate was called the “challenge plate”. The challenge plate was incubated for an additional 24 h, and the lid was transferred to the next 96-well plate containing fresh CAMHB media with 1% glucose (180 μL) and further incubated for 24 h. […] All the compounds were tested in a minimum of three independent experiments.

[3] = test system: S. aureus ATCC 700699 persisters; experiment: Persister viability assay; format: cell-based, Staphylococcus aureus; conditions: 32× MIC, 4 h; for activity against persisters: S. aureus ATCC 700699 persisters
Method: (§2) The persister assay was performed following the methodology described previously. Briefly, for persister viability assays, S. aureus ATCC 700699 strain (MRSA) was grown to stationary phase in CAMHB medium by shaking at 200 rpm in a shaking incubator for 24 h at 35 °C. […] After incubation, 400 µL aliquot was washed, serially diluted in PBS, and plated in blood agar plate for viable colony count.

[4] = test system: E. faecalis ATCC 51299 (Ef99); experiment: MIC, microdilution (CLSI); format: cell-based; conditions: Enterococcus faecalis, ATCC 51299 / VRE; Ef99, vancomycin-resistant (VRE) E. faecalis ATCC 51299; n = 3; read-out: MIC
Method: (§3) Compounds were dissolved in dimethyl sulfoxide (DMSO) to achieve a starting concentration of 32 µg/mL as described by us previously. Compounds were further diluted two-fold across the 96-well honeycomb plate columns in cation adjusted Mueller Hinton broth (CAMHB), and bacterial culture was added. Plates were incubated for 18–20 h at 35 ℃ before determining the minimum concentrations at which wells had no visible turbidity to the naked eye. The MIC values were determined from at least a duplicate result obtained from three independent experiments using fresh bacterial cultures on different days.

[5] = test system: E. faecium ATCC 700221 (Ef21); experiment: MIC, microdilution (CLSI); format: cell-based; conditions: Enterococcus faecium, ATCC 700221 / VRE; Ef21, vancomycin-resistant (VRE) E. faecium ATCC 700221; n = 3; read-out: MIC
Method: as §3

[6] = test system: S. aureus ATCC 700699 (Sa99); experiment: MIC, microdilution (CLSI); format: cell-based; conditions: Staphylococcus aureus, ATCC700699; Sa99, methicillin-resistant S. aureus ATCC 700699; n = 3; read-out: MIC
Method: as §3

[7] = test system: S. aureus ATCC 25923 (Sa23); experiment: MIC, microdilution (CLSI); format: cell-based; conditions: Staphylococcus aureus, ATCC25923; Sa23, antibiotic susceptible S. aureus ATCC 25923; n = 3; read-out: MIC
Method: as §3

[8] = test system: S. aureus ATCC 33591 (Sa91); experiment: MIC, microdilution (CLSI); format: cell-based; conditions: Staphylococcus aureus, ATCC33591; Sa91, methicillin-resistant S. aureus ATCC 33591; n = 3; read-out: MIC
Method: as §3

[9] = test system: S. epidermidis ATCC 700296 (Se); experiment: MIC, microdilution (CLSI); format: cell-based; conditions: Staphylococcus epidermidis, ATCC700296; Se, S. epidermidis ATCC 700296; n = 3; read-out: MIC
Method: as §3

[10] = test system: S. aureus BAA-2312 (Sa12); experiment: MIC, microdilution (CLSI); format: cell-based; conditions: Staphylococcus aureus, BAA2312; Sa12, methicillin-resistant S. aureus BAA-2312; n = 3; read-out: MIC
Method: as §3

[11] = test system: S. aureus ATCC 33592 (Sa92); experiment: MIC, microdilution (CLSI); format: cell-based; conditions: Staphylococcus aureus, ATCC33592; Sa92, methicillin-resistant S. aureus ATCC 33592; n = 3; read-out: MIC
Method: as §3

[12] = test system: Bacillus subtilis ATCC 6623 (Bs); experiment: MIC, microdilution (CLSI); format: cell-based; conditions: ATCC6623; Bs, Bacillus subtilis ATCC 6623; n = 3; read-out: MIC
Method: as §3

[13] = test system: E. faecalis ATCC 29212 (Ef12); experiment: MIC, microdilution (CLSI); format: cell-based; conditions: Enterococcus faecalis, ATCC29212; Ef12, antibiotic susceptible E. faecalis ATCC 29212; n = 3; read-out: MIC
Method: as §3

[14] = test system: E. faecalis biofilms (Efs12); experiment: Biofilm eradication (MBEC), Calgary Biofilm Device; format: cell-based
Method: as §1

S. aureus strains = experiment: MIC against S. aureus strains; format: cell-based, Staphylococcus aureus; conditions: against S. aureus strains
Method: as §3

Gram-positive bacteria = experiment: MIC across the tested strains; format: cell-based
Method: as §3

[15] = test system: MRSA persisters (S. aureus ATCC 700699); experiment: Persister Time Kill Assay; format: cell-based, Staphylococcus aureus; conditions: for decrease of persister cells: 2× MIC, 8 h; for persisters eradicated: within 8 h at all the 4× MIC, 8× MIC and 16× MIC concentrations
Method: as §2
Likewise, for persister time-kill assays, the persister cells were treated at varied concentrations and incubated with shaking. At the start and every 2 h until 8 h, 400 µL samples were washed, serially diluted, and plated on blood agar using the 6 × 6 drop plate method. Plates were incubated for 18–20 h at 35 °C, before the colonies were counted to calculate CFU/mL. All the treatments were performed in triplicates.

[16] = test system: S. aureus biofilms (Sa23); experiment: Biofilm eradication (MBEC), Calgary Biofilm Device; format: cell-based, Staphylococcus aureus
Method: as §1

SMILES | IC50 at 24 h [1] [µg/mL] | MBEC values [2] [µg/mL] | activity against persisters [3] | MIC [4] [µg/mL] | MIC [5] [µg/mL] | MIC [6] [µg/mL] | MIC [7] [µg/mL] | MIC [8] [µg/mL] | MIC [9] [µg/mL] | MIC [10] [µg/mL] | MIC [11] [µg/mL] | MIC [12] [µg/mL] | MIC [13] [µg/mL] | MBEC [14] [µg/mL] | times more effective than vancomycin and daptomycin (S. aureus strains) | MIC (Gram-positive bacteria; across the tested strains) [µg/mL] | decrease of persister cells [15] [log value] | persisters eradicated [15] | reduction of the population of persisters compared to the positive controls [3] [log values] | other results
O=C(O)c1ccc(-n2cc(CNc3cc(Cl)c(F)c(Cl)c3)c(-c3cc(C(F)(F)F)cc(C(F)(F)F)c3)n2)cc1 [Compound 28, 4-[3-[3,5-Bis(trifluoromethyl)phenyl]-4-[(3,5-dichloro-4-fluoro-anilino)methyl]pyraz-ol-1-yl] benzoic acid] | 7 to 8 (≈ 11.8 to 13.5 µM) | ≥ 1 | very effective | 2 (≈ 3.38 µM) | 1 (≈ 1.69 µM) | 1 (≈ 1.69 µM) | 1 (≈ 1.69 µM) | 1 (≈ 1.69 µM) | 2 (≈ 3.38 µM) | 1 (≈ 1.69 µM) | 1 (≈ 1.69 µM) | 1 (≈ 1.69 µM) | 2 (≈ 3.38 µM) | 2 | – | – | – | – | – | –
O=C(O)c1ccc(-n2cc(CNc3ccc(Cl)c(Cl)c3)c(-c3cc(C(F)(F)F)cc(C(F)(F)F)c3)n2)cc1 [Compound 19, 4-[3-[3,5-Bis(trifluoromethyl)phenyl]-4-[(3,4-dichloroanilino)methyl]pyrazol-1-yl] benzoic acid] | – | – | – | 1 (≈ 1.74 µM) | 1 (≈ 1.74 µM) | 2 (≈ 3.48 µM) | 1 (≈ 1.74 µM) | 0.5 (≈ 0.871 µM) | 1 (≈ 1.74 µM) | 0.5 (≈ 0.871 µM) | 1 (≈ 1.74 µM) | 1 (≈ 1.74 µM) | 1 (≈ 1.74 µM) | – | up to 4 times | ≥ 0.5 | – | – | – | –
O=C(O)c1ccc(-n2cc(CNc3cc(Cl)c(F)cc3F)c(-c3cc(C(F)(F)F)cc(C(F)(F)F)c3)n2)cc1 [Compound 26, 4-[3-[3,5-Bis(trifluoromethyl)phenyl]-4-[(5-chloro-2,4-difluoro-anilino)methyl]pyraz-ol-1-yl] benzoic acid] | – | – | – | 2 (≈ 3.47 µM) | 0.25 (≈ 0.434 µM) | 1 (≈ 1.74 µM) | 2 (≈ 3.47 µM) | 2 (≈ 3.47 µM) | 4 (≈ 6.95 µM) | 0.25 (≈ 0.434 µM) | 1 (≈ 1.74 µM) | 0.25 (≈ 0.434 µM) | 1 (≈ 1.74 µM) | – | up to 4 times | ≥ 0.25 | – | – | – | –
O=C(O)c1ccc(-n2cc(CNc3ccc(Br)c(Cl)c3F)c(-c3cc(C(F)(F)F)cc(C(F)(F)F)c3)n2)cc1 [Compound 29, 4-[3-[3,5-Bis(trifluoromethyl)phenyl]-4-[(4-bromo-3-chloro-2-fluoro-anilino)methyl]pyrazol-1-yl] benzoic acid] | 7 to 8 (≈ 11 to 12.6 µM) | ≥ 1 | very effective | 2 (≈ 3.14 µM) | 1 (≈ 1.57 µM) | 2 (≈ 3.14 µM) | 2 (≈ 3.14 µM) | 1 (≈ 1.57 µM) | 2 (≈ 3.14 µM) | 1 (≈ 1.57 µM) | 1 (≈ 1.57 µM) | 2 (≈ 3.14 µM) | 2 (≈ 3.14 µM) | 2 | – | – | ~2 | more than 3 log values | 4 | –
O=C(O)c1ccc(-n2cc(CNc3ccc(Br)cc3)c(-c3cc(C(F)(F)F)cc(C(F)(F)F)c3)n2)cc1 [Compound 11, 4-[3-[3,5-Bis(trifluoromethyl)phenyl]-4-[(4-bromoanilino)methyl]pyrazol-1-yl] benzoic acid] | 7 to 8 (≈ 12 to 13.7 µM) | – | very effective | 1 (≈ 1.71 µM) | 1 (≈ 1.71 µM) | 2 (≈ 3.42 µM) | 2 (≈ 3.42 µM) | 1 (≈ 1.71 µM) | 2 (≈ 3.42 µM) | 1 (≈ 1.71 µM) | 1 (≈ 1.71 µM) | 1 (≈ 1.71 µM) | 2 (≈ 3.42 µM) | 4 | – | – | 1 | more than 3 log values | 4 | –
O=C(O)c1ccc(-n2cc(CNc3ccc(Oc4ccccc4)cc3)c(-c3cc(C(F)(F)F)cc(C(F)(F)F)c3)n2)cc1 [Compound 5, 4-[3-[3,5-Bis(trifluoromethyl)phenyl]-4-[(4-phenoxyanilino)methyl]pyrazol-1-yl] benzoic acid] | 9.15 (≈ 15.3 µM) | – | partial activity | 1 (≈ 1.67 µM) | 1 (≈ 1.67 µM) | 2 (≈ 3.35 µM) | 1 (≈ 1.67 µM) | 1 (≈ 1.67 µM) | 4 (≈ 6.69 µM) | 2 (≈ 3.35 µM) | 1 (≈ 1.67 µM) | 2 (≈ 3.35 µM) | 2 (≈ 3.35 µM) | >32 | – | – | – | – | – | biofilm eradication property [2]: did not show any appreciable biofilm eradication property; MIC (Gram-positive bacteria; against several bacterial strains): 1 µg/mL (≈ 1.67 µM); MBEC [16]: >32 µg/mL
